Laboratory results as given in patent US9527859B2, “Amidopyridine derivative and use thereof” (Mitsubishi Tanabe Pharma Corporation, priority 2012, dated 2016).

Legend:
HepG2 cells = assay: Evaluation of hepatocyte cytotoxicity using HepG2 cells (CellTiter-Glo); format: cell-based, human; conditions: for Survival rate (%): cell survival rate
Description: Evaluation of Hepatocyte Cytotoxicity Using HepG2 Cells
A culture solution was prepared by adding 10% Fetal Bovine Serum (FBS: treated to be inactivated under the condition of 56° C., 30 minutes, Invitrogen, 10082-147), 0.1 mM Non-Essential Amino Acids (NEAA: Invitrogen, 11140-050), 1 mM sodium pyruvate (PyNa: Invitrogen, 11360-070) to Eagle's MEM medium (Invitrogen, 11875-093) and was used after warming to 37° C. before using.
HepG2 cell line (DS Pharma Biomedical) derived from human hepatoma in logarithmic growth phase were used. The number of cells subjected to subculturing was 1 to 5×10^6 cell/15 mL in a 75 cm^2 cultivation flask, and cells were subcultured about every 1 week depending on the condition of cells. In subculturing, cells were rinsed with D-PBS (−) (invitrogen, 14190-144) (10 mL), then thereto was added 0.25% Trypsin-1 mM EDTA (Invitrogen, 25200-056) (1 mL), and the mixture was treated for 10 minutes (37° C., 5% CO2), then thereto was added culture solution (9 mL), and the mixture was collected and centrifuged (1000 rpm×5 minutes, 4° C.). The number of cells were counted by dyeing with 0.4% trypan blue solution (Invitrogen, 15250-061), and then cells were diluted with culture solution to be a specific number of cells and incubated under the condition of 37° C., 5% CO2.
As to a cell seeding, HepG2 cells which were incubated in a 75 cm^2 flask were rinsed with D-PBS (−) (10 mL), and then thereto was added 0.25% Trypsin-1 mM EDTA (1 mL), and the mixture was treated for 10 minutes (37° C., 5% CO2). Thereto was added additional culture solution (9 mL), and the mixture was collected in a 50 mL centrifuge tube to be centrifuged (1000 rpm×5 minutes, 4° C.). A supernatant was removed, and the residual cells were suspended by additional culture solution and sufficiently single-celled by pipetting. After dyeing with 0.4% trypan blue, the number of cells were counted by using a cell counting chamber, and a suspended cell was prepared in a specified cell density (In case of 24-hour exposure: 1×10^5, in case of 48-hour exposure: 5×10^4 cells/mL). The 100 μL of cell suspension was added per 1 well (n=3, 24 hours: 1×10^4, 48 hours: 5×10^3 cells/100 μL/well) of 96 well Clear bottom black microplate (Corning, 3603), and then the mixture was pre-incubated for about 24 hours under the condition of 37° C., 5% CO2.
Stock solutions of test compounds were prepared in a 200-fold concentration of the desired maximum concentration to be homogenized with optional ultrasonication. These stock solutions were preserved at −20° C. Before using, a stock solution was thawed, and diluted with DMSO to be concentrations of 20 mM to 20 μM (common ratio of 3, 7 concentrations in total), and then it was diluted with culture solution in 100-fold to prepare a culture solution containing test compounds in a 2-fold concentration. Thus, the upper limit of the final concentration of DMSO in culture solution was in principle 0.5% (v/v).
A vehicle control group and a positive control group were set with each measurement plate. Chlorpromazine (Wako Pure Chemical Industries, Ltd., 033-10581) was used as a positive control agent (final concentration 24 hours: 20 μM, 48 hours: 15 μM). 20 mM stock solution was thawed, and then diluted with culture solution, and chlorpromazine-containing culture solution was prepared in 2-fold concentration.
As to the treatment of test compounds, a culture solution (100 μL) containing a test compound or a positive control agent and a culture solution (100 μL) containing vehicle were added to each specified well. A culture solution (200 μL) was added to blank (without cells) well. Thus, total amounts of culture solution of each well were 200 μL, and the final concentration of test compounds was 100 μM to 0.1 μM (common ratio of 3, 7 concentrations in total).
Incubation was carried out under the condition of 37° C., 5% CO2 for 24 or 48 hours. […]

[1] = test system: type II collagen-induced arthritis in DBA/1J mice; assay: Effect on type II collagen-induced arthritis in DBA/1J mice; format: in vivo, mouse; conditions: oral, once a day for three weeks from booster immunization; significant inhibitory effect on arthritis
Description: Effect on Type II Collagen-Induced Arthritis in DBA/1J Mice
An emulsion was prepared by mixing 200 μg of bovine type II collagen (purchased from collagen Gijyutsu Kenshuukai) with Freund's complete adjuvant (Sigma-Aldrich) containing killed Mycobacterium tuberculosis H37Ra, and arthritis was induced by immunization through subcutaneous administration of the emulsion to the tail of 6 to 7 week-old male DBA/1J mouse (Charles River Japan, Inc.), followed by booster immunization three weeks after the first immunization by administration of the same amounts of the emulsion prepared in a similar way. Test compound was suspended or dissolved in 0.5% carboxymethylcellulose (Sigma-Aldrich) and repeatedly administered orally once a day at a dose of 1 to 10 mg/kg body weight using an oral sonde for three weeks from the day of booster immunization. In this model, the symptom of arthritis of the limbs was each evaluated according to the following evaluation criteria of 0 to 4 scores: […], No change; 1, edema in only one joint; 2, edema in two or more joints, or mild edema of the entire limb; 3, severe edema of the entire limb; 4, severe edema of the entire limb and ankylosis and immovability of joint. The score of arthritis of each mouse was expressed as the total of the scores of the limbs (Maximum: 16 points). On the next day of the final administration, soft X-ray photograph of the limbs was taken with soft X-ray equipment (Omic), and the level of joint destruction was evaluated by observation under a microscope. In each finger of the limbs the score of joint destruction in each mouse was judged in the total of scores for each finger of limbs (Maximum: 20) as 0 when no joint destruction was found, and as 1 when one or more destruction was found. The arthritis score and joint destruction score were expressed as the average value and standard error for each group (n=6 to 9). Only a vehicle was administered in a control group, and statistical analysis was performed by Dunnett's multiple comparison test, in which the case was judged as significant when the p value was less than 0.05.

| Compound | Survival rate (%) (HepG2 cells) | Effective Dose (showing arthritis-inhibiting activity) [1] [mg/kg] | Cell survival rate (HepG2 cells) [%] |
| --- | --- | --- | --- |
| Cc1cc(NC(=O)c2cnn(-c3ccc(Cl)cc3)c2C)cnc1N1CCC(O)CC1 [Example 43, 1-(4-chlorophenyl)-N-[6-(4-hydroxypiperidin-1-yl)-5-methylpyridin-3-yl]-5-methyl-1H-pyrazole-4-carboxamide] | 117.8 |  |  |
| Cc1cc(NC(=O)c2cnn(-c3ccc(C(F)(F)F)cn3)c2C)cnc1N1CCC(C(C)(C)F)CC1 [Example 49, N-{6-[4-(1-fluoro-1-methylethyl)piperidin-1-yl]-5-methylpyridin-3-yl}-5-methyl-1-[5-(trifluoromethyl)pyridin-2-yl]-1H-pyrazole-4-carboxamide] | 102.3 |  |  |
| Cc1c(C(=O)Nc2cnc(N3CCC(O)CC3)c(C#N)c2)cnn1-c1ccc(C(F)(F)F)cc1 [Example 45, N-[5-cyano-6-(4-hydroxypiperidin-1-yl)pyridin-3-yl]-5-methyl-1-[4-(trifluoromethyl)phenyl]-1H-pyrazole-4-carboxamide] | 92.5 | 10 |  |
| Cc1cc(NC(=O)c2cnn(-c3ccc(C(F)(F)F)cc3)c2C)cnc1N1CCC(C(C)(C)F)CC1 [Example 47, N-{6-[4-(1-fluoro-1-methylethyl)piperidin-1-yl]-5-methylpyridin-3-yl}-5-methyl-1-[4-(trifluoromethyl)phenyl]-1H-pyrazole-4-carboxamide] | 99.8 |  |  |
| Cc1c(C(=O)Nc2cnc(N3CCC(O)CC3)c(C3CC3)c2)cnn1-c1ccc(Cl)cc1 [Example 39, 1-(4-chlorophenyl)-N-[5-cyclopropyl-6-(4-hydroxypiperidin-1-yl)pyridin-3-yl]-5-methyl-1H-pyrazole-4-carboxamide] | 107.1 | 3 | 65.8 |
| Cc1c(C(=O)Nc2cnc(N3CCC(O)CC3)c(C#N)c2)cnn1-c1ccc(Cl)cc1 [Example 44, 1-(4-chlorophenyl)-N-[5-cyano-6-(4-hydroxypiperidin-1-yl)pyridin-3-yl]-5-methyl-1H-pyrazole-4-carboxamide] | 95.8 | 3 |  |
